Key:
Format in all cases: cell-based, human
[1] = system: iETS1-hESCs (H1, DOX-inducible ETS1 transgene); assay: Primitive and definitive hematopoiesis from DOX-treated iETS1-hESCs (HB-CFC, HE, T cell, RBC cultures); conditions: CD43+ cells subcultured on OP9-DLL4
Procedure: To define which type of hematopoiesis is affected by ETS1 overexpression, we evaluated the effect of DOX treatment on i) hemangioblast (HB) CFCs that reflect the primitive wave of hematopoiesis^37, 38 and ii) on T lymphocytes and β-hemoglobin-producing red blood cells that reflect definitive hematopoiesis (FIG. 3A)^37, 39. […] This effect was more profound when cultures were treated with DOX from day 0 through day 3 to ensure maximum ETS1 overexpression on day 3 (FIG. 3B and FIGS. 9B-9C). […] To determine the effect of ETS1 upregulation on T cell potential, we collected CD43^+ cells from DOX+ and DOX− cultures and subcultured on OP9−DLL4 stromal cells. […]
HB-CFCs were detected as described previously^54. HB-CFCs were detected using the semisolid colony-forming serum-free medium (CF-SFM) containing 40% ES-Cult M3120 methylcellulose (2.5% solution in IMDM, Stem Cell Technologies), 25% StemSpan™ serum-free expansion medium (SFEM, Stem Cell Technologies), 25% human endothelial serum-free medium (ESFM, Invitrogen), 10% BIT 9500 supplement (Stem Cell Technologies), GlutaMAX™ (1/100 dilution, Invitrogen), Ex-Cyte™ (1/1000 dilution, Millipore), 100 μM MTG, 50 μg/ml ascorbic acid and 20 ng/ml FGF (Peprotech). Hematopoietic CFCs were detected using serum containing H4435 MethoCult with FGF, SCF, IL-3, IL-6 and EPO (Stem Cell Technologies). […]

[2] = system: DLL4+ arterial type HE from hPSCs; assay: Arterial HE specification in hESC differentiation cultures with modulation of MAPK/ERK signaling (flow cytometry); conditions: differentiation cultures treated on days 3 through day 6; LY294002 2 μM, U0126 1 μM
Procedure: (§1) To determine whether modulating MAPK/ERK signaling affects arterial specification of HE from hPSCs, we treated differentiation cultures on days 3 through day 6 with PI3K inhibitor LY294002, or MEK1 and MEK2 inhibitor U0126 (FIG. 6A).
H1 hESC line, the iETS1 H1 hESC line and the tdTomato H1 hESCs line were maintained on Matrigel™ in mTeSR1™ medium. Cells were passaged every 3-4 days using 0.5 mM EDTA in PBS. The hESC lines were differentiated on ColIV coated plate as previously described in details^26.
(§2) MAPK/ERK pathway was activated using LY294002 (2 μM, Cayman Chemicals) and was inhibited using U0126 (1 μM, Cayman Chemicals)

[3] = system: T lymphoid potential of hESC cultures; assay: T cell differentiation on OP9-DLL4 after LY294002 or U0126 treatment; conditions: cultures treated with LY294002 2 μM or U0126 1 μM
Procedure: as §1
T cell differentiation of hESC-derived hematopoietic precursors was performed on the OP9−DLL4 in T cell differentiated medium consisting of α-MEM (Gibco) supplemented with 20% FBS (Hyclone), 5 ng/ml FLT3L, 5 ng/ml IL-7 and 10 ng/ml SCF (all from PeproTech) as described previously^26. […] Cultures were fed with complete media changes weekly.
as §2

[4] = system: CD235a/CD41a-CD45+ hematopoietic progenitors from hESCs; assay: Hematopoietic progenitor production and hematopoietic CFC assay after modulation of MAPK/ERK signaling; conditions: ERK pathway activated (LY294002 2 μM) or inhibited (U0126 1 μM), days 3-6
Procedure: as §1, §2

[5] = system: NOTCH signaling in iETS1 hESC cultures; assay: Hematopoiesis following ETS1 upregulation in the presence of NOTCH signaling blockade; conditions: DOX-treated iETS1 hESC cultures; DAPT 10 μM, DLL4 blocking antibody 10 μg/ml
Source text: To confirm the role of NOTCH activation in promoting definitive hematopoiesis by ETS1, we evaluated hematopoiesis following ETS1 upregulation in the presence of NOTCH signaling inhibitor DAPT, and DLL4 neutralizing antibodies (FIG. 4E).
HB-CFCs were detected as described previously^54. HB-CFCs were detected using the semisolid colony-forming serum-free medium (CF-SFM) containing 40% ES-Cult M3120 methylcellulose (2.5% solution in IMDM, Stem Cell Technologies), 25% StemSpan™ serum-free expansion medium (SFEM, Stem Cell Technologies), 25% human endothelial serum-free medium (ESFM, Invitrogen), 10% BIT 9500 supplement (Stem Cell Technologies), GlutaMAX™ (1/100 dilution, Invitrogen), Ex-Cyte™ (1/1000 dilution, Millipore), 100 μM MTG, 50 μg/ml ascorbic acid and 20 ng/ml FGF (Peprotech). Hematopoietic CFCs were detected using serum containing H4435 MethoCult with FGF, SCF, IL-3, IL-6 and EPO (Stem Cell Technologies).
Cells were analyzed using MACSQuant Analyzer (Miltenyi Biotec) and FlowJo software (Tree star).
Notch signaling was blocked by DAPT (γ-secretase inhibitor/GSI, 10 μM, Cayman Chemicals) or DLL4 blocking antibody (10 μg/ml, Creative BioLabs)

C[C@H]1c2cccc(O)c2C(=O)C2=C(O)[C@]3(O)C(=O)C(C(N)=O)=C(O)[C@@H](N(C)C)[C@@H]3[C@@H](O)[C@@H]21 [DOX, doxycycline]
number of T lymphoid cells per 10^4 of CD43 cells, DOX+ versus DOX- cultures [1]: ~8 fold

N#CC(=C(/N)Sc1ccccc1N)/C(C#N)=C(\N)Sc1ccccc1N [U0126]
production of DLL4+ arterial type HE, including the DLL4+CXCR4+ fraction [2]: almost completely abrogated formation
T lymphoid potential [3]: entirely abrogated
production of multipotent CD235a/CD41a-CD45+ hematopoietic progenitors and CFC potential [4]: abrogated production

C[C@H](NC(=O)Cc1cc(F)cc(F)c1)C(=O)N[C@H](C(=O)OC(C)(C)C)c1ccccc1 [DAPT]
effect of ETS1 upregulation on hematopoiesis (blood production and CFC potential) [5]: abrogated effect
